# ChEMBL document CHEMBL1201862, “PubChem BioAssay data set” (2004)
#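 Assay format: 96-well plates, 48-hour exposure. GI50 marks 50% less growth.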 Activity calls are given as the source filed them. Rule as the data show it: active = GI50 up to about 1.1 µM and inactive = higher.
# What was measured:
# Experiment in all cases: NCI anticancer screen, dose series, 48 h
# SR = system: SR
# MDA-N = system: MDA-N
# T47D = system: T47D
# PC-3 = system: PC-3
# HOP-62 = system: HOP-62
# MDA-MB-231 = system: MDA-MB-231
# HL-60 = system: HL-60
# ACHN = system: ACHN
# MCF7 = system: MCF7
# M14 = system: M14
# A498 = system: A498
# HOP-92 = system: HOP-92
# DU-145 = system: DU-145
# SF-539 = system: SF-539
# SNB-78 = system: SNB-78
# M19-MEL = system: M19-MEL
# HCT-116 = system: HCT-116
# XF498 = system: XF498
# SN12C = system: SN12C
# HOP-18 = system: HOP-18
SMILES,GI50 (SR),GI50 (MDA-N),GI50 (T47D),GI50 (PC-3),GI50 (HOP-62),GI50 (MDA-MB-231),GI50 (HL-60),GI50 (ACHN),GI50 (MCF7),GI50 (M14),GI50 (A498),GI50 (HOP-92),GI50 (DU-145),GI50 (SF-539),GI50 (SNB-78),GI50 (M19-MEL),GI50 (HCT-116),GI50 (XF498),GI50 (SN12C),GI50 (HOP-18)
CCOC(=O)c1csc(NC(=O)CN2CCN(C)CC2)n1,> 100 µM (inactive),> 100 µM (inactive),> 100 µM (inactive),> 100 µM (inactive),> 100 µM (inactive),> 100 µM (inactive),> 100 µM (inactive),> 100 µM (inactive),> 100 µM (inactive),> 100 µM (inactive),> 100 µM (inactive),> 100 µM (inactive),> 100 µM (inactive),–,–,–,–,–,–,–
CCOc1ccc(/N=N/c2ccc3oc(=O)c(/C(C)=N\NC(=O)CC(=O)Nc4ccc(Cl)cc4)cc3c2)cc1,3.47 µM (inactive),–,–,–,17.6 µM (inactive),–,–,22.4 µM (inactive),–,–,–,25.2 µM (inactive),–,17.5 µM (inactive),27.9 µM (inactive),27.9 µM (inactive),16.4 µM (inactive),2.07 µM (inactive),26.1 µM (inactive),–
O=P(NCCCO)(OCc1ccccc1)N(CCCl)CCCl (stereo unspecified),–,–,–,–,–,–,> 100 µM (inactive),–,> 100 µM (inactive),–,> 100 µM (inactive),> 100 µM (inactive),–,> 100 µM (inactive),> 100 µM (inactive),> 100 µM (inactive),> 100 µM (inactive),> 100 µM (inactive),> 100 µM (inactive),> 39.5 µM (inactive)
CCOC(=O)C(NC(=O)CC)(Nc1ccccc1F)C(F)(F)F (stereo unspecified),> 100 µM (inactive),> 100 µM (inactive),38.4 µM (inactive),> 100 µM (inactive),–,> 100 µM (inactive),> 100 µM (inactive),48.9 µM (inactive),> 100 µM (inactive),> 100 µM (inactive),–,> 100 µM (inactive),> 100 µM (inactive),> 100 µM (inactive),–,–,> 100 µM (inactive),–,> 100 µM (inactive),–
O=C1N(Cc2ccccc2)C2CSCC2N1Cc1ccccc1 (stereo unspecified),37.2 µM (inactive),30.2 µM (inactive),27.2 µM (inactive),29.6 µM (inactive),1.85 µM (inactive),12.1 µM (inactive),–,49.2 µM (inactive),31.4 µM (inactive),10.5 µM (inactive),–,23 µM (inactive),50.9 µM (inactive),24.5 µM (inactive),–,–,36.4 µM (inactive),–,33.7 µM (inactive),–
CC(C)OP(=O)(OC(C)C)c1c(N)n[nH]c1Nc1ccccc1,> 100 µM (inactive),> 100 µM (inactive),> 100 µM (inactive),> 100 µM (inactive),> 100 µM (inactive),> 100 µM (inactive),–,> 100 µM (inactive),> 100 µM (inactive),> 100 µM (inactive),> 100 µM (inactive),> 100 µM (inactive),> 100 µM (inactive),> 100 µM (inactive),–,–,–,–,–,–
CN1CCC23c4ccccc4NC1C21CCN(C)C3Nc2ccccc21,–,–,–,–,> 375 µM (inactive),–,59.7 µM (inactive),–,> 375 µM (inactive),–,> 218 µM (inactive),94.6 µM (inactive),–,> 355 µM (inactive),151 µM (inactive),> 375 µM (inactive),356 µM (inactive),–,> 375 µM (inactive),343 µM (inactive)
N=C(N)SCc1cccc([N+](=O)[O-])c1,–,–,–,–,26.7 µM (inactive),–,18.8 µM (inactive),–,28.4 µM (inactive),–,25.1 µM (inactive),20.9 µM (inactive),–,25.5 µM (inactive),35.6 µM (inactive),35.3 µM (inactive),26.5 µM (inactive),25.1 µM (inactive),37 µM (inactive),26.9 µM (inactive)
CC(=O)Oc1cc2c(cc1OC(C)=O)OCC(c1ccc(C)cc1)C2 (stereo unspecified),–,–,–,–,20.5 µM (inactive),–,2.61 µM (inactive),–,24.9 µM (inactive),–,8.69 µM (inactive),8.85 µM (inactive),–,19.5 µM (inactive),21.6 µM (inactive),9.29 µM (inactive),20.7 µM (inactive),15.4 µM (inactive),18.1 µM (inactive),26.9 µM (inactive)
COc1ccc(N2C(=O)C3c4[nH]c5ccccc5c4C4CCCCCCCCCC4C3C2=O)cc1 (stereo unspecified),> 10 µM (inactive),> 10 µM (inactive),> 10 µM (inactive),> 10 µM (inactive),> 10 µM (inactive),> 10 µM (inactive),> 10 µM (inactive),> 10 µM (inactive),> 10 µM (inactive),> 10 µM (inactive),> 10 µM (inactive),–,> 10 µM (inactive),7.28 µM (inactive),–,–,> 10 µM (inactive),–,> 10 µM (inactive),–
CNS(=O)(=O)c1ccc2c(c1)/C(=C1/Nc3ccccc3C1=O)C(=O)N2,–,> 100 µM (inactive),> 100 µM (inactive),> 100 µM (inactive),> 100 µM (inactive),2.63 µM (inactive),14.6 µM (inactive),> 100 µM (inactive),–,> 100 µM (inactive),> 100 µM (inactive),–,> 100 µM (inactive),–,–,–,> 100 µM (inactive),–,> 100 µM (inactive),–
c1cc2c3c(c1)c1cc4c(cc1c[n+]3CC2)OCO4 [ANHYDROLYCORINIUM CHLORIDE],–,–,–,–,3.83 µM (inactive),–,6.3 µM (inactive),–,6.25 µM (inactive),–,2.37 µM (inactive),25.3 µM (inactive),–,2.48 µM (inactive),4.06 µM (inactive),1.33 µM (inactive),2.81 µM (inactive),4.14 µM (inactive),1.99 µM (inactive),9.79 µM (inactive)
CCCCCCCCCCCCCCCCCCOCC(O)CO (stereo unspecified) [BATILOL],–,–,–,–,14 µM (inactive),–,10.5 µM (inactive),–,> 25 µM (inactive),–,3.61 µM (inactive),11.7 µM (inactive),–,> 25 µM (inactive),> 25 µM (inactive),12 µM (inactive),> 25 µM (inactive),15.5 µM (inactive),> 25 µM (inactive),0.61 µM (active)
